In patent US7169786B2, “Isoxazoline derivatives as anti-depressants” (priority 2001, dated 2007):

Experiments:
hα2C receptor = target: T1, hα2C receptor (Homo sapiens, UniProt P18825); assay: Radioligand binding experiment for hα2C receptor ([3H]-raulwolscine); settings: membranes of CHO cells expressing human α2C receptor; [3H]raulwolscine 1 nM; read-out: hα2C pIC50 (converted)
T1 construct: expressed in transfected cells
T1 sequence (P18825 1-462): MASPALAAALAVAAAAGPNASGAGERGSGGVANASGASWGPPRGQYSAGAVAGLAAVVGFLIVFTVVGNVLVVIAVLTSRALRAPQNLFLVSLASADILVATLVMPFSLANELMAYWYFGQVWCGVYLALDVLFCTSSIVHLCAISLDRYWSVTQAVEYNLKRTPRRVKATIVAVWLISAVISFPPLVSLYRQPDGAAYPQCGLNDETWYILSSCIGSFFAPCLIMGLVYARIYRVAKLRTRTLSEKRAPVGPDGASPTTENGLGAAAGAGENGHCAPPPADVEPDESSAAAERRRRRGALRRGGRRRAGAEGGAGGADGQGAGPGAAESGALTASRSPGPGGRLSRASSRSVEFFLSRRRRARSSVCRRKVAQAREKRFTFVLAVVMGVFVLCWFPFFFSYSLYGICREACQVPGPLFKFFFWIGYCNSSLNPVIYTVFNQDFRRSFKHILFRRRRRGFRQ
Protocol: (§1) The interaction of the compounds of Formula (I) with hα2-receptors and h5-HT-transporters was assessed in in vitro radioligand binding experiments. In general, a low concentration of a radioligand with a high binding affinity for a particular receptor or transporter is incubated with a sample of a tissue preparation enriched in a particular receptor or transporter or with a preparation of cells expressing cloned human receptors in a buffered medium. During the incubation, the radioligand binds to the receptor or transporter. When equilibrium of binding is reached, the receptor bound radioactivity is separated from the non-bound radioactivity, and the receptor- or transporter-bound activity is counted. The interaction of the test compounds with the receptor is assessed in competition binding experiments. Various concentrations of the test compound are added to the incubation mixture containing the receptor- or transporter preparation and the radioligand. The test compound in proportion to its binding affinity and its concentration inhibits binding of the radioligand. The radioligand used for hα2A, hα2B and hα2C receptor binding was [^3H]-raulwolscine and for the h5-HT transporter was [^3H]paroxetine.
(§2) CHO cells, stabile transfected with human adrenergic-α2A-, -α2B or α2C receptor cDNA, were cultured in Dulbecco's Modified Eagle's Medium (DMEM)/Nutrient mixture Ham's F12 (ratio 1:1)(Gibco, Gent-Belgium) supplemented with 10% heat inactivated fetal calf serum (Life Technologies, Merelbeke-Belgium) and antibiotics (100 IU/ml penicillin G, 100 μg/ml streptomycin sulphate, 110 μg/ml pyruvic acid and 100 μg/ml L-glutamine). One day before collection, cells were induced with 5 mM sodiumbutyrate. Upon 80–90% of confluence, cells were scraped in phosphate buffered saline without Ca^2+ and Mg^2+ and collected by centrifugation at 1500×g for 10 min. The cells were homogenised in Tris-HCl 50 mM using an Ultraturrax homogenizer and centrifuged for 10 min at 23,500×g. The pellet was washed once by resuspension and rehomogenization and the final pellet was resuspended in Tris-HCl, divided in 1 ml aliquots and stored at −70° C.
(§3) Membranes were thawed and re-homogenized in incubation buffer (glycylglycine 25 mM, pH 8.0). […] Filters were rinsed extensively with ice-cold rinsing buffer (Tris-HCl 50 mM pH 7.4). Filter-bound radioactivity was determined by scintillation counting in a Topcount (Packard, Meriden, Conn.) and results were expressed as counts per minute (cpm). Non-specific binding was determined in the presence of 1 μM oxymetazoline for hα2A- and hα2B receptors and 1 μM spiroxatrine for hα2C receptors.
(§4) Data from assays in the presence of compound were calculated as a percentage of total binding measured in the absence of test compound. Inhibition curves, plotting percent of total binding versus the log value of the concentration of the test compound, were automatically generated, and sigmoidal inhibition curves were fitted using non-linear regression. The pIC50 values of test compounds were derived from individual curves.

hα2A receptor = target: T2, hα2A receptor (Homo sapiens, UniProt P08913); assay: Radioligand binding experiment for hα2A receptor ([3H]-raulwolscine); settings: membranes of CHO cells expressing human α2A receptor; [3H]raulwolscine 1 nM; read-out: hα2A pIC50 (converted)
T2 construct: expressed in transfected cells
T2 sequence (P08913 1-465): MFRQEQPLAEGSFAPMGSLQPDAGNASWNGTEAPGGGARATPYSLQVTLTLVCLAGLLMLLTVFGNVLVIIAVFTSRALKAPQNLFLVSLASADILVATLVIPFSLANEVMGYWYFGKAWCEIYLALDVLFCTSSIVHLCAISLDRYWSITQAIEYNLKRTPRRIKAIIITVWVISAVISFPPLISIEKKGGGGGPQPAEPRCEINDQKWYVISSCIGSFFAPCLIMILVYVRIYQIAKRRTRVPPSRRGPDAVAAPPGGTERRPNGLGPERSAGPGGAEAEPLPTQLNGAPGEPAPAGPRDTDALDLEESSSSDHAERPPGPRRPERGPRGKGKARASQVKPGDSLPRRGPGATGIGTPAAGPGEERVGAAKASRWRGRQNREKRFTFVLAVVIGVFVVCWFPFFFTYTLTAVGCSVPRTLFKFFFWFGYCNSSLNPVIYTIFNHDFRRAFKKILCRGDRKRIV
Protocol: as §1, §2, §3, §4

hα2B receptor = target: T3, hα2B receptor (Homo sapiens, UniProt P18089); assay: Radioligand binding experiment for hα2B receptor ([3H]-raulwolscine); settings: membranes of CHO cells expressing human α2B receptor; [3H]raulwolscine 1 nM; read-out: hα2B pIC50 (converted)
T3 construct: expressed in transfected cells
T3 sequence (P18089 1-450): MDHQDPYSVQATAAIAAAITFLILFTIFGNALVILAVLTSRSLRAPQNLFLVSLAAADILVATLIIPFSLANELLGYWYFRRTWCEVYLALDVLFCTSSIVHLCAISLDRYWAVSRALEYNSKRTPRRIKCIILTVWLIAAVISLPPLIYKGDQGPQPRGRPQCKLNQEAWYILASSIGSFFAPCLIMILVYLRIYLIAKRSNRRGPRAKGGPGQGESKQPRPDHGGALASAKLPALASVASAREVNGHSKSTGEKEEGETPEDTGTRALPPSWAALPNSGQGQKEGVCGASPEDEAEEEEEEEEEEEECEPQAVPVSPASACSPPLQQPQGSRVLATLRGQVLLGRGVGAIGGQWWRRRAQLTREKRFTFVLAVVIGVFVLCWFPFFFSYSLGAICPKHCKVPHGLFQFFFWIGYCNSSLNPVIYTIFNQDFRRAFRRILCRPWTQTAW
Protocol: as §1, §2, §3, §4

h5-HT transporter = target: T4, h5-HT transporter (Homo sapiens, UniProt P31645); assay: Radioligand binding experiment for 5-HT transporter ([3H]paroxetine, human platelet membranes); settings: human platelet membranes; [3H]paroxetine 0.5 nM; read-out: 5HTT pIC50 (converted)
T4 construct: Human platelet membranes (Oceanix Biosciences Corporation, Hanover, Md., USA) were thawed; tissue Oceanix Biosciences Corporation, Hanover, Md., USA; host or cells: human platelet membranes
Protocol: as §1
Human platelet membranes (Oceanix Biosciences Corporation, Hanover, Md., USA) were thawed, diluted in buffer (Tris-HCl 50 mM, 120 mM NaCl and 5 mM KCl) and quickly (max 3 s) homogenised with an Ultraturrax homogenizer. […] Filters were rinsed extensively with ice-cold buffer and radioactivity on the filters was counted in a Topcount liquid scintillation counter (Packard, Meriden, Conn.). Data were expressed as cpm. Imipramine (at 1 μM final concentration) was used to determine the non-specific binding.
as §4

T4 sequence (P31645 whole entry): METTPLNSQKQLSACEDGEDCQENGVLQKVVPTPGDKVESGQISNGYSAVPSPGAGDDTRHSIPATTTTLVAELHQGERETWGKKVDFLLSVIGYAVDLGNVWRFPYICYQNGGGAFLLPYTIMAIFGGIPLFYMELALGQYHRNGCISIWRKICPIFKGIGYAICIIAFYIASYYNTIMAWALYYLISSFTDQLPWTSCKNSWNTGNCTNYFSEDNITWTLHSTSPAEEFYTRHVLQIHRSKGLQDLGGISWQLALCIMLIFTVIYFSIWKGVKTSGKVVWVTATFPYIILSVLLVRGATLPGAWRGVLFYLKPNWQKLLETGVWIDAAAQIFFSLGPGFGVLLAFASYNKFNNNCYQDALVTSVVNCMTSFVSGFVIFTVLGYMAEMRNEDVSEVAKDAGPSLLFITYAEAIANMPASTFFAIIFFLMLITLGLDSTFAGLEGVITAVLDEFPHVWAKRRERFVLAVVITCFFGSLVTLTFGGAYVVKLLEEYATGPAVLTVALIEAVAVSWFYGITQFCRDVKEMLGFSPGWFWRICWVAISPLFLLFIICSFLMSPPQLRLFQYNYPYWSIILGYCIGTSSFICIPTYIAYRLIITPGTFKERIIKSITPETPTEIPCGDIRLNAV

Row | IC50 (hα2C receptor) [nM] | IC50 (hα2A receptor) [nM] | IC50 (hα2B receptor) [nM] | IC50 (h5-HT transporter) [nM] | Compound
1 | 74.1 | 13.5 | 52.5 | – | COc1cc2c(cc1OC)C1=NOC(CN3CCN(CC(C)=Cc4cccc5ccccc45)CC3)C1CO2 (centres unmarked) [Compound 157]
2 | 2.09 | 4.57 | 1.58 | – | COc1cc2c(cc1OC)C1=NOC(CN3CCN(CC(C)=Cc4cccc(F)c4)CC3)C1CO2 (centres unmarked) [Compound 195]
3 | 8.13 | 14.5 | 3.63 | – | COc1cc2c(cc1OC)C1=NOC(CN3CCN(CC(C)=Cc4ccc(F)cc4)CC3)C1CO2 (centres unmarked) [Compound 196]
4 | 1.66 | 1.2 | 1 | – | COc1cc2c(cc1OC)C1=NOC(CN3CCN(CC(C)=Cc4cc(F)ccc4F)CC3)C1CO2 (centres unmarked) [Compound 199]
5 | 4.57 | 4.37 | 3.24 | – | COc1ccccc1C=C(C)CN1CCN(CC2ON=C3c4cc(OC)c(OC)cc4OCC32)CC1 (centres unmarked) [Compound 201]

More lines, now with the values behind:

Row | Compound | IC50 (hα2C receptor) [nM] | IC50 (hα2A receptor) [nM] | IC50 (hα2B receptor) [nM] | IC50 (h5-HT transporter) [nM]
6 | COc1ccccc1C=CCN1CCN(CC2ON=C3c4cc(OC)c(OC)cc4OCC32)CC1 (centres unmarked) [Compound 41] | 12.6 | 15.8 | 5.01 | –
7 | COc1cc2c(cc1OC)C1=NOC(CN3CCN(Cc4cccc(Br)c4)CC3)C1CO2 (centres unmarked) [Compound 90] | – | 195 | – | 302
8 | COc1cc2c(cc1OC)C1=NOC(CN3CCN(Cc4cccn4C)CC3)C1CO2 (centres unmarked) [Compound 291] | 1000 | 851 | – | 1000
9 | COc1cc2c(cc1OC)C1=NOC(CN3CCN(CCC(=O)c4ccccc4)CC3)C1CO2 (centres unmarked) [Compound 309] | 58.9 | 50.1 | – | 389
10 | COc1cc2c(cc1OC)C1=NOC(CN3CCN(CCC(O)c4ccccc4)CC3)C1CO2 (centres unmarked) [Compound 310] | 64.6 | 214 | – | 871
11 | COc1cc2c(cc1OCCOC(C)=O)C1=NOC(CN3CCN(CC(C)=Cc4ccccc4)CC3)C1CO2 (centres unmarked) [Compound 332] | 0.603 | 4.47 | – | 58.9
12 | COc1ccc2c(c1)C1=NOC(CN3CCN(CC(C)=Cc4ccccc4)CC3)C1CO2 (centres unmarked) [Compound 348] | 1.32 | 1.2 | – | 17.8
13 | COc1cc2c(cc1OC(C)=O)OCC1C2=NOC1CN1CCN(Cc2ccc3ccccc3c2)CC1 (centres unmarked) [Compound 355] | 7.08 | 5.13 | – | 13.5
